These results are taken from patent US8637573B2 (Iasomai AB, priority 2009, dated 2014).

For one series, the system named is endometriotic lesions. Briefly: Murine model of endometriosis: growth (total weight) of endometriotic lesions. Format: in vivo, BALB/C mice. To be noted: mice, gavage 44 mg/kg/day daily for 21 days; n=10 vs n=10; p<0.05. As for the experimental part: 36 female, 6 to 8 weeks-old BALB/C mice were purchased from Charles River Italia (Calco, Italy). Pellet food (enriched standard diet; Mucedola, Milan, Italy) and water were provided ad libitum. Animals were kept on a light/dark cycle of 16/8 hours under controlled conditions. Prior to any invasive procedure, the mice were anaesthetized by intraperitoneal injection of 0.4 ml of a physiological solution containing 2.5% AVERTIN.
Induction of endometriosis was performed following the method described in Somigliana et al, Hum Reprod 1999 December; 14(12):2944-50. Surgical interventions were performed under clean conditions. Briefly, uterine horns of syngenic mice were removed through a small midline incision into the peritoneal space, just below the umbilicus, and put into a Petri dish containing phosphate-buffered saline (PBS). Endometrial fragments were obtained by finely chopping uterine horns by using a razor blade. Fragments were suspended in 0.6 ml of PBS and rapidly inoculated into the peritoneal cavity of recipient mice with a ratio of one donor to two recipients. The endometriosis-induced mice were randomly divided into two groups of 12 mice each: control and NAC-treatment. […]
At the end of the treatment, animals were sacrificed and endometriotic lesions were carefully excised from the surrounding tissue, their total weight and number was assessed. […]

The next series relates to P21 (cdkn1a). Briefly: RT-PCR of P21 gene expression in cysts from mice. Format: in vivo, BALB/C mice. Conditions: 44 mg/kg/day, 21 days. As for the experimental part: (§1) The day after the endometrial implant, mice of the treatment group were subjected to gavage with 100 [mu] […] The control group only received water. […] At the end of treatment, mice were killed through cervical dislocation.
Total RNA was isolated by lysing the frozen endometrial cysts with TissueLyser (QIAGEN, Milan, Italy) using TRIzol Reagent (Invitrogen, Milan, Italy) according to the manufacturer's instructions. One microgram of total RNA from each sample was treated with 1 U of DNAse I (Invitrogen) and reverse transcribed with 200 U of Superscript III Reverse Transcriptase (Invitrogen), using 250 ng of random primers in 20 [mu] l of final volume. […]
First, the ratio between the sample and the housekeeping gene was calculated by simultaneous amplification of gene-specific mRNA and 18S RNA in a single reaction tube. Since this procedure was not successful for all samples—likely due to the relative small number of specific transcripts thus of a preferential amplification of 18S mRNA—to prevent quantitative inaccuracies deriving from competitive effects, the target genes and 18 S cDNA generated in the same RT reaction were amplified in separate tubes. […] Semi quantitative PCR was performed in a 25 [mu] […] The densitometric analyses of the PCR products were performed using an image software Quantity One (VersaDOC, Bio-Rad).

A further series has as its system E-cadherin. Briefly: Immunohistochemical detection of E-cadherin in cysts from mice. In kind it is in vivo, BALB/C mice. To be noted: 44 mg/kg/day, 21 days, controls: diffused all over cell cytoplasm. As to the method:
as §1
(§2) Formalin-fixed samples were paraffin-embedded and tissue sections (5 [mu] [iota] [eta] thick) were stained using haematoxylin-eosin. All slides were evaluated by an experienced pathologist who was blind to the study and the histological diagnosis of endometriosis was based on the morphological identification of endometrial glandular tissue and stroma.
(§3) For immunohistochemistry, sections were deparaffinized and rehydrated in graded ethanol. For antigen retrieval, sections were microwaved for 6 min in 0.1 M citrate buffer (pH 6.0) and endogenous peroxidase activity was blocked by a 20 min incubation in 3% H202/methanol. Sections were rinsed in PBS/TritonX-100, immersed for 15 min in PBS-bovine serum albumin (BSA) 1% to block unspecific binding sites, and then incubated with the selected primary antibody diluted in PBS-BSA 1%. […] The quantification of Ki-67 expression was carried out in a blind fashion by two independent observers; each observer counted at least 200 cells in more than 10 randomly chosen fields for each sample and the Ki-67 labeling index was expressed in percentage.

The subject of the next series is Cox-2 protein. Description: Immunohistochemical detection of Cox-2 protein in cysts from mice. Format: in vivo, BALB/C mice. Conditions: 44 mg/kg/day, 21 days. As for the experimental part: as §1, §2, §3
A further series deals with Ki-67. Description: Ki-67 immunohistochemistry (labeling index) in cysts from mice. Conditions: 44 mg/kg/day, 21 days. In kind it is in vivo, BALB/C mice. As to the method:
as §1, §2, §3

The nature of series [1]: Toxicity observation in the murine endometriosis model. Format: in vivo. Conditions: mice, 44 mg/kg/day by gavage, 21 days.
Source text: as §1

In another series the test system is ovarian endometriomas. Description: Preliminary clinical study: size of ovarian endometriomas by ultrasound. Format: in vivo. Conditions: women. As for the experimental part: Women with a first diagnosis of endometriosis, based on pain and on ovarian ultrasound evidence of the disease, and patients with a recurrence of pain and/or ovarian endometrioma after laparoscopic treatment were enrolled in the study,
(§4) Before treatment, the intensity of pain symptoms was measured by the means of a 10 points visual analogue scale (VAS) and the characteristics of the ovarian endometriomas by transvaginal ultrasounds. During NAC treatment, other treatments are excluded with the exception of analgesic to treat pain, when needed. Patients.
(§5) From February 2008 to July 2010, 64 women diagnosed for ovaric endometriosis were enrolled in the study, with a mean age of 35+−7 years (+−SD). […] All of them presented one or more cysts at one or both ovaries.
(§6) 1995; 4:245-51), the suspension of the treatment for about half of each week warrants an optimal biological response in a lengthy treatment, e.g. two to six months or longer.
(§7) Pain symptoms intensity (VAS pain scale) and the size of the ovarian endometriomas (clinical and US exams) were evaluated after the first three months of treatment. If necessary, laparoscopic treatment was performed after 3 months.

The nature of series [2]: Preliminary clinical study: pain intensity by 10-points visual analogue scale (VAS). In kind it is in vivo, women. To be noted: NAC-treated patients, 10-points VAS. As to the method: as §4, §5, §6, §7
Pain perception was also modified after NAC treatment. Pain was evaluated, before and after the three-months treatment, by a 10-points visual analogue scale (VAS) with zero representing no pain and 10 representing the worst imaginable pain. Intensity of symptoms were classified as none (0), mild (1-4), moderate (5-7), or severe (8-10). NAC-treated patients reported an average pain reduction, from 7.6+−0.3 to 5.1+−0.8 (p<0.01) after three months of treatment.

A short description of series [3]: Preliminary clinical study: side effects, pregnancy and other observations. Format: in vivo, women.
Source text: as §5, §6, §7

The subject of another series is vaginal hyperalgesia. Description: Experimentally induced endometriosis in rats: escape response to vaginal distention (vaginal hyperalgesia). In kind it is in vivo, Sprague-Dawley rats. To be noted: 60 mg/kg/day, 8 weeks, 0.5 ml distension volume.
For series [4] the following is noted: cited from earlier work.

Description for vaginal hyperalgesia: 16 adult virgin female Sprague-Dawley rats were used. They weighed 200-230 g at the start of the study and were housed individually in a temperature-controlled room in plastic cages lined with bedding. The rats had ad libitum access to water and rat chow and were maintained on a 12-h light/dark cycle, with lights on at 07:00. Reproductive status (proestrus, estrus, metestrus, and diestrus) was determined by daily vaginal lavage performed. Prior to induction of endometriosis rats were trained to perform an escape response to terminate vaginal distention produced by an inflatable latex balloon. A small uninflated latex balloon was tied to a thin catheter lubricated before being inserted into the mid-vaginal canal. Inflating the balloon with different volumes of air distended the vaginal canal. The pressure produced by each volume of distention was control measured through a small-volume pressure transducer. The testing apparatus was a small cylindrical plexiglass chamber designed to contain the rat just enough to prevent her from turning around. An opening in the rear of the chamber allowed the catheter attached to the vaginal stimulator to be connected to a stimulus apparatus. A photosensor determined the position of the rat in the chamber. If the rat extended, as part of an escape response, the light beam was broken and the stimulus was terminated. The rats were adopted to the testing chamber by placing it in the chamber for 15 min daily for 5 days. The rats were then, during training sessions, accustomed to a mechanical escape response to deflate vaginal distension, which involved the rat extending her head to interrupt the light beam. […] Time to response and escape responses were measured as a function of distention volume for each session, as described in Cason A M et al (Horm Behav. (2003), Vol. 44, pages 123-31). […] For each rat, the escape responses and pressures/volumes for all of that rat's sessions (at least 12 sessions) were combined, and the mean values calculated. […] The escape response to terminate vaginal distention, as described above, was assessed after 8 weeks.

For the molecule `CC(=O)N[C@@H](CS)C(=O)O` [NAC, N-acetyl-L-cysteine], the “total weight of endometriotic lesions vs controls” value with endometriotic lesions is “significant weight reduction”. The “P21 gene expressed, number of examined NAC-treated samples” value in the series with P21 (cdkn1a) (never expressed in the 5 controls) is reported as 3 of the 5. Besides, the “P21 observed, percent of NAC-treated animals” value with P21 (cdkn1a) (not expressed in controls) was determined as 60%. The “E-cadherin localisation in cysts” value with E-cadherin is recorded as “mainly detected along cell-cell junctions”. Besides, the “Cox-2 protein immunohistochemical staining relative to cysts from control mice” value in the series with Cox-2 protein is recorded as “quite a decreased staining”. In addition, the “reduction in proliferating cells (Ki-67) relative to control mice” value in the series on Ki-67 (8 animals per group) is recorded as 54%. For the same molecule, the “Labeling index for Ki-67 with standard error” value in the series with Ki-67 (n = 8 × 5, p < 0.01) is 0.87 ± 0.11%. Also, the “body weight at the end of treatment” value in [1] is given as “unchanged”. Further, in the series with ovarian endometriomas (1.8 g NAC per day, three consecutive days each week, three months, controls less than 10%), the “cases with a decrease in cyst size (maximum diameter by ultrasound)” value turned out to be 38%. Besides, the “patients who decided to cancel or postpone the programmed laparoscopy” value in the series on ovarian endometriomas (NAC treatment three months) is listed as 21 out of 33. In addition, the “average pain (VAS) after three months of treatment” value in [2] (1.8 g per day three days each week, p<0.01) is on record as 5.1+−0.8. Also, the “average pain (VAS) before treatment” value in series [2] (baseline) was 7.6+−0.3. Also, in [3] (NAC-treated women, no statistical significance attributed), the cases of pregnancy entry is listed as “three”. Also, in [3] (anecdotic observation by surgeon, endometrioma more regular and compact), the “bleeding during laparoscopy after NAC treatment” value is “relevant reduction in bleeding”. Moreover, the recto-vaginal septum nodule result in series [3] (one additional case) was “disappeared”. Further, the adverse side effects result in series [3] (women, 1.8 g NAC per day, three days each week, three months) is “No adverse side effects”. Also, the “relative reduction in escape response in relation to sham treated group” value with vaginal hyperalgesia (daily NAC treatment) was 18%; in the series on vaginal hyperalgesia (intermittent NAC treatment (5 days and 2 days rest)), 28%; in the series with vaginal hyperalgesia (pulsed NAC treatment (every other day)) it was 32%. Further, the “time to peak concentration in plasma” value in [4] (in vivo) is reported as “about one”. Moreover, the “time to total clearance” value in [4] (in vivo) was “six and twelve”. For the same molecule, the half-life entry in series [4] (plasma) was “about three”.
